For data set [1], the system named is many phytopathogens and Gram-positive bacteria. To be noted: cited from earlier work.
For data set [2] the following is noted: isolated from a Cyanobacteria sp.; cited from earlier work.
The test system of data set [3] is Pseudomonas aeruginosa and K. pneumonia. To be noted: cited from earlier work.
In data set [4] the test system is Gram-positive and Gram-negative bacteria. To be noted: cited from earlier work. An excerpt: Further studies need to be undertaken to fully assess the potency of the SacP23 by performing minimum inhibitory concentration tests for a range of sensitive bacteria. […] This indicates the diversity in antimicrobial spectra of sactipeptide-type ...
Another data set relates to E. coli ATCC 25922. It is filed as cell-based. To be noted: purified SacP23, medium MHA.
The next data set deals with S. aureus ATCC 25923. The data set is classed as cell-based, Staphylococcus aureus. To be noted: purified SacP23, medium MHA, clear zone, 30°C 12–18 h.
The next data set concerns the target proteinase K (Parengyodontium album, UniProt P06873). To be noted: proteinase K 1 mg ml^−1, 1 h; spot-on-lawn versus untreated sample.
For data set [5], the system named is L. monocytogenes192/1-2 ACM 3173. The data set is classed as cell-based, Listeria monocytogenes. To be noted: purified SacP23; L. monocytogenes 192/1-2 ACM 3173; medium MHA.
The test system of another data set is B. subtilis BS34A. It is filed as cell-based, Bacillus subtilis.
The next data set concerns pronase E. The note with it: pronase E 1 mg ml^−1, 1 h; spot-on-lawn versus untreated sample.
A further data set deals with C. jejuni ATCC 81116. The data set is classed as cell-based, Campylobacter jejuni. To be noted: purified SacP23, medium MHA + 5% sheep blood.
A further data set has as its system S. aureus MRSA 344/2-24. It is filed as cell-based, Staphylococcus aureus.
The test system of a further data set is E. faecalis (VRE) 345/19. It is filed as cell-based, Enterococcus faecalis. To be noted: purified SacP23, medium MRS.
Another data set relates to C. perfringens EHE-NE18. It is filed as cell-based, Clostridium perfringens. The note with it: purified SacP23, medium MHA.
The test system of a further data set is catalase. The note with it: catalase 1 mg ml^−1, 1 h; spot-on-lawn versus untreated sample.
The subject of another data set is lipase. To be noted: lipase 1 mg ml^−1, 1 h; spot-on-lawn versus untreated sample.
In data set [6] the test system is S. Enteritidis ATCC 13076. The data set is classed as cell-based, Salmonella Enteritidis. The note with it: purified SacP23, medium MHA.
A further data set concerns trypsin. To be noted: trypsin 1 mg ml^−1, 1 h; spot-on-lawn versus untreated sample.
Another data set deals with L. plantarum A6. It is filed as cell-based, Lactobacillus plantarum. To be noted: purified SacP23, medium deMan, Rogosa and Sharpe (MRS).
Another data set concerns B. cereus ATCC 10876. The data set is classed as cell-based, Bacillus cereus. The note with it: purified SacP23, medium MHA.
For data set [7], the system named is many Gram-negative bacteria including colistin-resistant Klebsiella pneumonia, E. coli, and Campylobacter species. To be noted: cited from earlier work.
Data set [8] deals with Gram-negative and Gram-positive pathogens including antibiotic-resistant strains of E. coli, P. aeruginosa, Acinetobacter baumannii, K. pneumoniae, S. aureus …. To be noted: cited from earlier work.

Chain of proteinase K (P06873 106-384): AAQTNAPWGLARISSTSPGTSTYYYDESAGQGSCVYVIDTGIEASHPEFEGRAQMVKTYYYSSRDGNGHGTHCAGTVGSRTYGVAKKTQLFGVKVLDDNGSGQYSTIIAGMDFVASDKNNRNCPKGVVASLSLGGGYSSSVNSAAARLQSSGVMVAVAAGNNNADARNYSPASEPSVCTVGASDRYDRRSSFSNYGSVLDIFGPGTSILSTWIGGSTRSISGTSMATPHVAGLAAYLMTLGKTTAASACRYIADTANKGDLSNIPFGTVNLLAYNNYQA

Regarding fusaricidin B, the inhibitory activity entry in data set [1] is “inhibitory activity”.

Consider landornamide A, for which, in data set [2], the antiviral activity entry is on record as “antiviral activity”.

As to Polymyxin, the growth suppression entry in [3] is listed as “suppress the growth”.

Consider “subtilosin A (cyclo(NKGCATCSIGAACLVDGPIPDFEIAGATGLFGLWG); ends not checked; also: sactipeptide thioether linkages between Cys and alpha-carbons, positions not given here; UniProt O07623 9-43, looked up)”, for which, in data set [4], the antimicrobial spectrum result was “antimicrobial activity extending to both Gram-positive and Gram-negative bacteria”.

For the substance “MRKLVKRSTNVGDTIEAFGCGCSCYCPCSCYCAGSLTRSSNTSRESDGSYRRDNGTGIGN [SacP23, novel sactipeptide bacteriocin from Paenibacillus polymyxa #23, heterologously expressed in B. subtilis BS34A and purified; mature structure not elucidated]”, the antimicrobial activity entry in the data set with E. coli ATCC 25922 is listed as “−”; in the data set on S. aureus ATCC 25923 it was “+”; in data set [5], “−”; in the data set with B. subtilis BS34A (purified SacP23, B. subtilis BS34A, medium MHA), “+”; in the data set with C. jejuni ATCC 81116 it was “−”; with S. aureus MRSA 344/2-24 (purified SacP23, S. aureus MRSA 344/2-24, medium MHA, clear zone, 30°C 12–18 h) it was “+”. Moreover, the antimicrobial activity result in the data set on E. faecalis (VRE) 345/19 is “+”; in the data set on C. perfringens EHE-NE18 it was “−”; in data set [6], “−”; with L. plantarum A6, “−”; with B. cereus ATCC 10876 it was “+”. The “enzymatic stability: remaining antimicrobial activity after proteinase K” value at proteinase K is “sensitive”. Further, the “sensitivity of the base B. subtilis expression strain” value in the data set with B. subtilis BS34A (recombinant SacP23, result in words) is given as “sensitive”. Further, the “enzymatic stability: remaining antimicrobial activity after pronase E” value with pronase E is reported as “sensitive”. Moreover, the “antimicrobial activity against an MRSA isolate” value in the data set with S. aureus MRSA 344/2-24 (heterologously expressed recombinant SacP23, result in words) is on record as “strong activity”. Moreover, in the data set on catalase, the “enzymatic stability: remaining antimicrobial activity after catalase” value was “resistant”. In addition, the “enzymatic stability: remaining antimicrobial activity after lipase” value in the data set on lipase was “resistant”. The “enzymatic stability: remaining antimicrobial activity after trypsin” value in the data set with trypsin is reported as “sensitive”.

Take Tridecaptin: in data set [7], the “activity against Gram-negative bacteria” value is “strong activity”.

Consider paenibacterin, for which the antimicrobial activity result in data set [8] is recorded as “antimicrobial activity”.
